Experimental findings from patent publication US11702402B2, “Small molecules that block proteasome-associated ubiquitin receptor RPN13 function and uses thereof” (DANA-FARBER CANCER INSTITUTE, INC., priority 2018, dated 2023) are described below.

Entries after “also recorded” stand apart in the source; their conditions may differ.

The test system of data set [1] is INA6 MM cells. Briefly: INA6 cell viability. In kind it is cell-based, Human. The following applies: IL-6-dependent INA6; 48 hours. An excerpt: The IC50 of WL40 for cell lines is shown.
Data set [2] has as its system PARP, caspase-3, caspase-7, caspase-8, caspase-9. Briefly: PARP/caspase immunoblot and caspase enzymatic activity. In kind it is cell-based, Human. The protocol:
FIGS. 22A to 22F show the mechanisms of WL40-induced MM cell death. […] MM.1S cells were treated with DMSO control or WL40 (200 nM) for 16 hours, and then analyzed for apoptosis using Annexin V/PI double staining assay (mean±SD; n=3; p<0.001). FIG. 22B is an immunoblot of MM.1S and ANBL6.BR cells, which were treated with DMSO control or WL40 (200 nM for MM.1S; 1 μM for ANBL6.BR) for 16 hours; protein lysates were then subjected to the immunoblotting using antibodies against poly ADP ribose polymerase (PARP), caspase-3, caspase-7, caspase-8, caspase-9, or β-actin. FL, full length; CF, cleaved fragment. FIG. 22C is a bar graph measuring enzymatic activity. MM.1S cells were treated with DMSO control or WL40 (200 nM) for 12 hours, followed by the measurement of caspase-3, caspase-8, or caspase-9 enzymatic activity (mean±SD; n=3; p<0.0001). FIG. 22D is an immunoblot of MM.1S and ANBL6.BR cells, which were treated with DMSO control or WL40 (200 nM for MM.1S; 1 μM for ANBL6.BR) for 16 hours; protein lysates were then subjected to the immunoblotting using specific antibodies against Cyclin-B1, Cell Division Cycle 25C (CDC25C), Cell Division Cycle 2 (CDCl2), or β-actin. […]
In general terms: A western blot detects proteins with antibodies after separation by electrophoresis.

Data set [3] has as its system LC3A/B. Briefly: Autophagy marker LC3A/B immunoblot. The format is cell-based, Human. As to conditions: ANBL6.BR or MM.1S; versus DMSO or RA190.
Data set [4] addresses RPN13 (Homo sapiens, UniProt Q16186). Briefly: Rpn13 flow cytometry in MM.1S cells. In kind it is cell-based. Also on record: endogenous in cells; host or cells: MM.1S; MM.1S-CRBN KO; RPMI-8226; ANBL6.BR. The following applies: WL40 (400 nM) 16 hours, versus DMSO or RA190 (500 nM). The protocol:
FIGS. 19A-19I show the exemplary design and characterization of exemplary Rpn13 degrader WL40. […] WL40 was created by linking the Rpn13 inhibitor RA190 to the IMiD thalidomide as a ligand for the CRBN E3 ligase via a PEG linker. […] FIG. 19C is a schematic cartoon for the novel AlphaScreen assay to measure the binding activity of inhibitor with RPN13 proteins. […] FIG. 19E depicts immunoblot analysis of multiple myeloma 1S (MM.1S) cells, which were treated with WL40 or RA190 at the indicated concentrations and time periods; protein lysates were subjected to the immunoblot analysis using anti-Rpn13 or anti-tubulin Abs. FIG. 19F depicts flow cytometry analysis of MM.1S cells, which were treated with DMSO control, WL40 (400 nM), or RA190 (500 nM) for 16 hours; cells were then washed and stained with Rpn13 Ab conjugated with AlexaFluor-647, followed by the flow cytometry analysis. […] Data was quantified using FACS Diva (BD Biosciences, USA) and FlowJo (FlowJo LLC, USA). […]
Next, it was examined whether WL40 decreases cellular Rpn13 levels in MM cells. MM.1S cells were treated with various concentrations of WL40 (20 0 nM, 400 nM, or 800 nM) for 4 hours, 8 hours, and 16 hours; protein lysates were then analyzed for Rpn13 levels using immunoblot analysis. […] To further corroborate the findings, MM.1S cells were treated with WL40, and then analyzed intracellular alterations in Rpn13 using flow cytometry.

RPN13, sequence (Q16186 whole entry): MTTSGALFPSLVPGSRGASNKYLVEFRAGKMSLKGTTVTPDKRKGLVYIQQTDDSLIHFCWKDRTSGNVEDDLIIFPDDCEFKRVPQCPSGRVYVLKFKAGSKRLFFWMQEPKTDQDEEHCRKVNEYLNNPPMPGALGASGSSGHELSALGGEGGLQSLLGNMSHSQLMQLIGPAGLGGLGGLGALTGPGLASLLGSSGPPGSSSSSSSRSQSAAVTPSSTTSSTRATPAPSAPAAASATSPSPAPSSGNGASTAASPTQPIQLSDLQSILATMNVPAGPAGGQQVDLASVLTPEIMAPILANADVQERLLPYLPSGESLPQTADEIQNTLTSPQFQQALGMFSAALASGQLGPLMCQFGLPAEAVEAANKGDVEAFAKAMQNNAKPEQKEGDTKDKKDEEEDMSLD

For the compound `O=C1CCC(N2C(=O)c3cccc(NCCOCCOCCOCCC(=O)N[C@@H](Cc4ccccc4)C(=O)N4C/C(=C\c5ccc(Cl)c(Cl)c5)C(=O)/C(=C/c5ccc(Cl)c(Cl)c5)C4)c3C2=O)C(=O)N1` (some centres unmarked) [WL40], the “cytotoxic activity (cell viability)” value in data set [1] is “cytotoxic activity”. Moreover, in data set [2] (200 nM for MM.1S, 1 μM for ANBL6.BR, 16 hours), the “PARP cleavage (immunoblot)” value is “proteolytic cleavage of Poly (ADP) ribose polymerase (PARP)”. Moreover, the caspase activation result in data set [2] (MM.1S 200 nM, immunoblot 16 hours, enzymatic activity 12 hours) is “activation of caspase-3, caspase-7, caspase-8 and caspase-9”. The “LC3A/B level / LC3 activation” value in data set [3] is “significant increase in LC3A/B; also recorded: more pronounced LC3 activation”. In data set [4], the “Rpn13 expression (flow cytometry)” value is “significant reduction in Rpn13 expression”.
